PubChem BioAssay AID256 (DTP/NCI, 2004)
Values joined by “and” are separate entries in the source; they are usually repeats but may differ in a detail not shown here. Equal values may be shown once. Inconclusive results and toxic doses are left out.

System: CD2F1 mice, L1210 leukemia ip, survival T/C
Assay: NCI In Vivo Anticancer Drug Screen. Data for tumor model L1210 Leukemia (intraperitoneal) in CD2F1 (CDF1) mice
Settings: higher = longer survival
Method in brief: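 Compound-dosed mice with transplantable tumor versus matched vehicle controls; endpoint ratio T/C reported.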

[1] = endpoint: mean survival time, dose: 100.0 mg/kg/injection, schedule: Q01DX001 (ip), vehicle: saline
[2] = endpoint: mean survival time, dose: 200.0 mg/kg/injection, schedule: Q01DX001 (ip), vehicle: saline
[3] = endpoint: mean survival time, dose: 400.0 mg/kg/injection, schedule: Q01DX001 (ip), vehicle: saline
[4] = endpoint: mean survival time, dose: 100.0 mg/kg/injection, schedule: Q01DX001 (ip), vehicle: saline with Tween-80
[5] = endpoint: mean survival time, dose: 100.0 mg/kg/injection, schedule: Q01DX009 (ip), vehicle: saline with Tween-80
[6] = endpoint: mean survival time, dose: 200.0 mg/kg/injection, schedule: Q01DX001 (ip), vehicle: saline with Tween-80
[7] = endpoint: mean survival time, dose: 200.0 mg/kg/injection, schedule: Q01DX009 (ip), vehicle: saline with Tween-80
[8] = endpoint: mean survival time, dose: 400.0 mg/kg/injection, schedule: Q01DX001 (ip), vehicle: saline with Tween-80
[9] = endpoint: mean survival time, dose: 400.0 mg/kg/injection, schedule: Q01DX009 (ip), vehicle: saline with Tween-80
[10] = endpoint: mean survival time, dose: 100.0 mg/kg/injection, schedule: Q04DX003 (ip), vehicle: saline with Tween-80
[11] = endpoint: mean survival time, dose: 200.0 mg/kg/injection, schedule: Q04DX003 (ip), vehicle: saline with Tween-80
[12] = endpoint: mean survival time, dose: 400.0 mg/kg/injection, schedule: Q04DX003 (ip), vehicle: saline with Tween-80
[13] = endpoint: mean survival time, dose: 100.0 mg/kg/injection, schedule: Q04DX003 (ip), vehicle: Klucel (hydroxypropylcellulose) (HPC)
[14] = endpoint: mean survival time, dose: 200.0 mg/kg/injection, schedule: Q04DX003 (ip), vehicle: Klucel (hydroxypropylcellulose) (HPC)
[15] = endpoint: mean survival time, dose: 400.0 mg/kg/injection, schedule: Q04DX003 (ip), vehicle: Klucel (hydroxypropylcellulose) (HPC)

SMILES: CNC(=O)NCC1OC(n2cnc3c(=O)[nH]c(N)nc32)C(O)C1O (stereo unspecified)
- T/C [1]: 103 % of control
- T/C [2]: 97 % of control
- T/C [3]: 103 % of control

SMILES: Nc1ccc2ccc(N)cc2c1
- T/C (endpoint: median survival time, dose: 25.0 mg/kg/injection, schedule: Q01DX009 (ip), vehicle: saline with Tween-80): 98 % of control
- T/C (endpoint: median survival time, dose: 50.0 mg/kg/injection, schedule: Q01DX009 (ip), vehicle: saline with Tween-80): 100 % of control
- T/C (endpoint: median survival time, dose: 100.0 mg/kg/injection, schedule: Q01DX009 (ip), vehicle: saline with Tween-80): 100 % of control
- T/C (endpoint: median survival time, dose: 200.0 mg/kg/injection, schedule: Q01DX009 (ip), vehicle: saline with Tween-80): 105 % of control

SMILES: O=C(O)/C=C/C(=O)Nc1ccc(C(=O)O)cc1
- T/C [4]: 94 % of control
- T/C [5]: 91 % of control
- T/C [6]: 92 % of control
- T/C [7]: 96 % of control
- T/C [8]: 92 % of control
- T/C [9]: 89 % of control

SMILES: CN1CC[C@]23c4c5ccc(O)c4O[C@H]2C(=O)CC[C@H]3[C@H]1C5
- T/C (endpoint: mean survival time, dose: 12.5 mg/kg/injection, schedule: Q01DX009 (ip), vehicle: saline): 95 % of control
- T/C (endpoint: mean survival time, dose: 25.0 mg/kg/injection, schedule: Q01DX009 (ip), vehicle: saline): 102 % of control
- T/C (endpoint: mean survival time, dose: 50.0 mg/kg/injection, schedule: Q01DX009 (ip), vehicle: saline): 93 % of control

SMILES: Cc1ccc(C2CC(c3ccccc3)=NN2C)cc1 (stereo unspecified)
- T/C (endpoint: mean survival time, dose: 75.0 mg/kg/injection, schedule: Q01DX001 (ip), vehicle: other): 96 % of control
- T/C (endpoint: mean survival time, dose: 150.0 mg/kg/injection, schedule: Q01DX001 (ip), vehicle: other): 90 % of control
- T/C (endpoint: mean survival time, dose: 300.0 mg/kg/injection, schedule: Q01DX001 (ip), vehicle: other): 93 % of control

SMILES: CCN(C(=O)Nc1ccccc1OC)c1ccccc1
- T/C [10]: 98 % of control
- T/C [11]: 98 % of control
- T/C [12]: 93 % of control

SMILES: CN(C)c1ccc(N=C2CC(=Nc3ccc(N(C)C)cc3)c3ccccc3C2=O)cc1
- T/C (endpoint: mean survival time, dose: 100.0 mg/kg/injection, schedule: Q04DX003 (ip), vehicle: saline): 104 % of control
- T/C (endpoint: mean survival time, dose: 200.0 mg/kg/injection, schedule: Q04DX003 (ip), vehicle: saline): 96 % of control
- T/C (endpoint: mean survival time, dose: 400.0 mg/kg/injection, schedule: Q04DX003 (ip), vehicle: saline): 101 % of control

SMILES: FC(F)(F)c1ccc2nc(CI)c(CI)nc2c1
- T/C (endpoint: mean survival time, dose: 1.5 mg/kg/injection, schedule: Q01DX009 (ip), vehicle: saline with Tween-80): 104 % of control
- T/C (endpoint: mean survival time, dose: 3.0 mg/kg/injection, schedule: Q01DX009 (ip), vehicle: saline with Tween-80): 110 % of control
- T/C (endpoint: mean survival time, dose: 6.0 mg/kg/injection, schedule: Q01DX009 (ip), vehicle: saline with Tween-80): 96 % of control
- T/C (endpoint: mean survival time, dose: 12.0 mg/kg/injection, schedule: Q01DX009 (ip), vehicle: saline with Tween-80): 104 % of control
- T/C (endpoint: mean survival time, dose: 24.0 mg/kg/injection, schedule: Q01DX009 (ip), vehicle: saline with Tween-80): 88 % of control

SMILES: O=C1CSC2(CCN(Cc3ccccc3)CC2)O1
- T/C [1]: 98 % of control
- T/C [2]: 102 % of control
- T/C [3]: 95 % of control

SMILES: Cc1nccc(N)n1
- T/C [4]: 89 % of control
- T/C [6]: 90 % of control
- T/C [8]: 90 % of control

SMILES: CN(C)CCNCc1ccc2c(c1)OCO2
- T/C (endpoint: mean survival time, dose: 25.0 mg/kg/injection, schedule: Q01DX001 (ip), vehicle: saline): 102 % of control
- T/C (endpoint: mean survival time, dose: 50.0 mg/kg/injection, schedule: Q01DX001 (ip), vehicle: saline): 102 % of control
- T/C [1]: 102 % of control

SMILES: CC(C)CCCC(C)C1CCC2C3CCC4CC5OCC(O)CC5CC4(C)C3CCC12C (stereo unspecified)
- T/C [5]: 96 % of control
- T/C [7]: 100 % of control
- T/C [9]: 96 % of control

SMILES: CCOC(=O)Nc1cccc2c1-c1ccccc1/C2=N\NC(N)=S
- T/C (endpoint: mean survival time, dose: 50.0 mg/kg/injection, schedule: Q01DX001 (ip), vehicle: carboxymethylcellulose (CMC)): 102 % of control
- T/C (endpoint: mean survival time, dose: 100.0 mg/kg/injection, schedule: Q01DX001 (ip), vehicle: carboxymethylcellulose (CMC)): 104 % of control
- T/C (endpoint: mean survival time, dose: 200.0 mg/kg/injection, schedule: Q01DX001 (ip), vehicle: carboxymethylcellulose (CMC)): 98 % of control
- T/C (endpoint: mean survival time, dose: 400.0 mg/kg/injection, schedule: Q01DX001 (ip), vehicle: carboxymethylcellulose (CMC)): 98 % of control

SMILES: O=[N+]([O-])c1cc(S(=O)(=O)c2ccc(F)c([N+](=O)[O-])c2)ccc1F
- T/C (endpoint: mean survival time, dose: 6.25 mg/kg/injection, schedule: Q01DX009 (ip), vehicle: Klucel (hydroxypropylcellulose) (HPC)): 98 % of control
- T/C (endpoint: mean survival time, dose: 12.5 mg/kg/injection, schedule: Q01DX009 (ip), vehicle: Klucel (hydroxypropylcellulose) (HPC)): 98 % of control
- T/C (endpoint: mean survival time, dose: 25.0 mg/kg/injection, schedule: Q01DX009 (ip), vehicle: Klucel (hydroxypropylcellulose) (HPC)): 98 % of control

SMILES: OCC1OCOC2COCOC12 (stereo unspecified)
- T/C [10]: 95 % of control
- T/C [11]: 98 % of control
- T/C [12]: 101 % of control

SMILES: ClC1CC[N-]CC1.ClC1CC[N-]CC1.[Cl][Pt+2]([Cl])([Cl])[Cl]
- T/C (endpoint: mean survival time, dose: 12.5 mg/kg/injection, schedule: Q01DX009 (ip), vehicle: water): 123 % of control
- T/C (endpoint: mean survival time, dose: 25.0 mg/kg/injection, schedule: Q01DX009 (ip), vehicle: water): 110 % of control

SMILES: O=C(N/N=C/c1cccc2ccccc12)C(O)c1ccccc1 (stereo unspecified)
- T/C [5]: 104 % of control
- T/C [7]: 101 % of control
- T/C [9]: 98 % of control

SMILES: Cc1ccc(C(=O)c2ccc([N+](=O)[O-])cc2)cc1
- T/C [10]: 94 % of control
- T/C [11]: 94 % of control

SMILES: O=C(/C=C\c1ccc([N+]([O-])=Nc2ccc(/C=C/C(=O)c3ccccc3)cc2)cc1)c1ccccc1
- T/C [4]: 102 % of control
- T/C [6]: 86 % of control
- T/C [8]: 98 % of control

SMILES: Cc1c2ccccc2cc2cccc[n+]12
- T/C (endpoint: mean survival time, dose: 2.5 mg/kg/injection, schedule: Q01DX009 (ip), vehicle: saline): 95 % of control and 100 % of control
- T/C (endpoint: mean survival time, dose: 5.0 mg/kg/injection, schedule: Q01DX009 (ip), vehicle: saline): 95 % of control and 101 % of control
- T/C (endpoint: mean survival time, dose: 10.0 mg/kg/injection, schedule: Q01DX009 (ip), vehicle: saline): 102 % of control and 110 % of control
- T/C (endpoint: mean survival time, dose: 20.0 mg/kg/injection, schedule: Q01DX009 (ip), vehicle: saline): 97 % of control and 106 % of control

SMILES: CCCCCCCCCCCCCCCCSc1cccc(C)c1
- T/C [13]: 95 % of control
- T/C [14]: 92 % of control
- T/C [15]: 98 % of control

SMILES: [Cl][Pt][Cl].c1ccc2[nH]c(C3CCCC[N-]3)nc2c1 (stereo unspecified)
- T/C (endpoint: mean survival time, dose: 12.5 mg/kg/injection, schedule: Q01DX009 (ip), vehicle: saline with Tween-80): 93 % of control
- T/C (endpoint: mean survival time, dose: 25.0 mg/kg/injection, schedule: Q01DX009 (ip), vehicle: saline with Tween-80): 98 % of control
- T/C (endpoint: mean survival time, dose: 50.0 mg/kg/injection, schedule: Q01DX009 (ip), vehicle: saline with Tween-80): 94 % of control
- T/C [7]: 91 % of control

SMILES: Nc1ccn(C2OC(CO)C(O)C2Br)c(=O)n1 (stereo unspecified)
- T/C (endpoint: median survival time, dose: 12.5 mg/kg/injection, schedule: Q01DX005 (ip), vehicle: saline): 108 % of control
- T/C (endpoint: median survival time, dose: 25.0 mg/kg/injection, schedule: Q01DX005 (ip), vehicle: saline): 107 % of control
- T/C (endpoint: median survival time, dose: 50.0 mg/kg/injection, schedule: Q01DX005 (ip), vehicle: Klucel (hydroxypropylcellulose) (HPC)): 118 % of control
- T/C (endpoint: median survival time, dose: 50.0 mg/kg/injection, schedule: Q01DX005 (ip), vehicle: saline): 119 % of control
- T/C (endpoint: median survival time, dose: 200.0 mg/kg/injection, schedule: Q01DX005 (ip), vehicle: saline): 150 % of control

SMILES: O=C1c2cccc3c2C2(O)c4c1cccc4C(=O)c1cccc(c12)C3=O
- T/C (endpoint: mean survival time, dose: 132.0 mg/kg/injection, schedule: Q01DX009 (ip), vehicle: saline with Tween-80): 104 % of control
- T/C [7]: 121 % of control

SMILES: ClC(Cl)(Cl)c1nc(C(Cl)(Cl)Cl)nc(C(Cl)(Cl)Cl)n1
- T/C [13]: 97 % of control
- T/C [14]: 87 % of control
- T/C [15]: 91 % of control

SMILES: CO[C@@]12[C@@H]3N[C@@H]3CN1C1=C(C(=O)C(N3CCOCC3)=C(C)C1=O)[C@@H]2COC(N)=O
- T/C (endpoint: mean survival time, dose: 1.5 mg/kg/injection, schedule: Q01DX001 (ip), vehicle: distilled water + Tween-80): 118 % of control
- T/C (endpoint: mean survival time, dose: 3.0 mg/kg/injection, schedule: Q01DX001 (ip), vehicle: distilled water + Tween-80): 123 % of control
- T/C (endpoint: mean survival time, dose: 12.0 mg/kg/injection, schedule: Q01DX001 (ip), vehicle: distilled water + Tween-80): 115 % of control
